# Source: patent publication US9447130B1, “Process for the preparation of dicycloplatin” (Syn-Nat Products Enterprise LLC, priority 2015, dated 2016)
# What was measured:
# [1] = water solubility of dicycloplatin; format: physicochemical; settings: room temperature
# From the text: (§1) Moreover, in additional polymorph studies of dicycloplatin, it was recognized that the use of shorter aliphatic alcohols (as reported in U.S. Pat. No. 6,699,901) such as methanol, ethanol, isopropanol and butanol led to a significant amount of carboplatin being left in the product because of disproportionation. […] Thus, recrystallization in water was not efficient and was difficult to scale up.
# [2] = cited from earlier work
# [3] = stability of dicycloplatin to heat / hot water (evaporation, slurry); format: physicochemical
# Experimental: • 1) Dissolved 50.0 mg of carboplatin (135 μmol) in 2.8 mL of water in a 3-mL glass vial at RT. • 2) Added 19.4 mg of 1,1-cyclobutane dicarboxylic acid (135 μmol) into the same vial. • 3) Stirred the suspension at RT to obtain a clear solution. • 4) Transferred the clear solution to a 25-mL round-bottom flask and rotary evaporated at a temperature between 50° C. and 55° C. to obtain white crystal solid. • 5) Air-dried the solid to obtain a product.
# as §1
substance,measurement,setting,value
dicycloplatin,water solubility,[1],40 mg/mL
same,recommended Phase II dosage,[2]; DCP-containing chemotherapy,450 mg/m^2
same,bioavailability and stability in vivo,"[2]; in vivo, Chinese cancer patients",favorable
same,thermal stability during evaporation,"[3]; evaporation step of the reported process (U.S. Pat. No. 6,699,901)",sensitive to high temperature
same,stability of a slurry in hot water,[3]; slurry in hot water,partial hydrolysis
